According to the supplement of paper PMC4862054:

Experiments:
Settings in all cases: incubation time: 72 h
CAL-85-1 = experiment: drug sensitivity score (DSS), CellTiter-Blue viability (DSS (AUC-based score)); higher = stronger viability inhibition; extreme values may be limits of the assay
Outline: (§1)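 Breast cancer cell lines in 20 µl suspension were seeded into 384-well plates already holding compound in a 5- or 9-concentration series and incubated for 72 h. CellTiter-Blue reagent (2.5 µl per well) was then added for 2 h at 37 °C, and fluorescence was read at 560/590 nm. Values on each plate were normalised to 0.1 % DMSO and a positive kill control. The drug sensitivity score is the area under the fitted dose-response curve.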

Hs578T = experiment: as above
Outline: as §1

MDA-MB-231 = experiment: as above
Outline: as §1

MDA-MB-453 [1] = experiment: as above
Outline: as §1

CAL-51 [2] = experiment: as above
Outline: as §1

HCC1143 = experiment: as above
Outline: as §1

BT-549 [3] = experiment: as above
Outline: as §1

HDQ-P1 [4] = experiment: as above
Outline: as §1

SK-BR-3 = experiment: as above
Outline: as §1

HCC1937 = experiment: as above
Outline: as §1

CAL-148 = experiment: as above
Outline: as §1

CAL-120 [5] = experiment: as above
Outline: as §1

HCC1599 [6] = experiment: as above
Outline: as §1

MFM-223 [7] = experiment: as above
Outline: as §1

MDA-MB-468 [8] = experiment: as above
Outline: as §1

MDA-MB-436 = experiment: drug sensitivity score (DSS), CellTox Green (DSS (AUC-based score)); higher = stronger drug effect (viability inhibition or cytotoxicity); extreme values may be limits of the assay
Outline: (§2)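 Normalisation on every plate relied on 0.1 % DMSO and a positive kill control. The plates, 384-well format, held compound at 5 concentrations 10-fold apart across a compound-specific 10,000-fold range, and breast cancer cell lines in 20 µl suspension were incubated on them for 72 h before CellTox Green and then CellTiter-Glo readings. The drug sensitivity score derives from the area under the fitted dose-response curve.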

DU-4475 = experiment: as above
Outline: as §2

MDA-MB-453 [9] = experiment: as above
Outline: as §2

CAL-51 [10] = experiment: as above
Outline: as §2

MCF-10A = experiment: as above
Outline: as §2

BT-549 [11] = experiment: as above
Outline: as §2

HDQ-P1 [12] = experiment: as above
Outline: as §2

CAL-120 [13] = experiment: as above
Outline: as §2

HCC1599 [14] = experiment: as above
Outline: as §2

MFM-223 [15] = experiment: as above
Outline: as §2

MDA-MB-468 [16] = experiment: as above
Outline: as §2

CC(C)Cn1cnc2c(N)nc3ccccc3c21 [Imiquimod]
drug sensitivity score (CAL-85-1): 0
drug sensitivity score (Hs578T): 0
drug sensitivity score (MDA-MB-231): 0
drug sensitivity score (MDA-MB-453 [1]): 0.443
drug sensitivity score (CAL-51 [2]): 0
drug sensitivity score (HCC1143): 0
drug sensitivity score (BT-549 [3]): 0
drug sensitivity score (HDQ-P1 [4]): 0
drug sensitivity score (SK-BR-3): 0
drug sensitivity score (HCC1937): 0
drug sensitivity score (CAL-148): 0
drug sensitivity score (CAL-120 [5]): 0
drug sensitivity score (HCC1599 [6]): 0
drug sensitivity score (MFM-223 [7]): 0
drug sensitivity score (MDA-MB-468 [8]): 0
drug sensitivity score (MDA-MB-436): 0
drug sensitivity score (DU-4475): 0
drug sensitivity score (MDA-MB-453 [9]): 0
drug sensitivity score (CAL-51 [10]): 0
drug sensitivity score (MCF-10A): 0
drug sensitivity score (BT-549 [11]): 0.506
drug sensitivity score (HDQ-P1 [12]): 1.63
drug sensitivity score (CAL-120 [13]): 0
drug sensitivity score (HCC1599 [14]): 0
drug sensitivity score (MFM-223 [15]): 0
drug sensitivity score (MDA-MB-468 [16]): 3.54

Clc1ccc(Nc2nnc(Cc3ccncc3)c3ccccc23)cc1 [Vatalanib]
drug sensitivity score (CAL-85-1): 0
drug sensitivity score (Hs578T): 0
drug sensitivity score (MDA-MB-231): 0
drug sensitivity score (MDA-MB-453 [1]): 0
drug sensitivity score (CAL-51 [2]): 0
drug sensitivity score (HCC1143): 0
drug sensitivity score (BT-549 [3]): 0
drug sensitivity score (HDQ-P1 [4]): 0
drug sensitivity score (SK-BR-3): 0
drug sensitivity score (HCC1937): 0
drug sensitivity score (CAL-148): 0
drug sensitivity score (CAL-120 [5]): 0
drug sensitivity score (HCC1599 [6]): 0
drug sensitivity score (MFM-223 [7]): 0
drug sensitivity score (MDA-MB-468 [8]): 0
drug sensitivity score (MDA-MB-436): 0
drug sensitivity score (DU-4475): 0
drug sensitivity score (MDA-MB-453 [9]): 0
drug sensitivity score (CAL-51 [10]): 0
drug sensitivity score (MCF-10A): 2.74
drug sensitivity score (BT-549 [11]): 0
drug sensitivity score (HDQ-P1 [12]): 0
drug sensitivity score (CAL-120 [13]): 0
drug sensitivity score (HCC1599 [14]): 0
drug sensitivity score (MFM-223 [15]): 0
drug sensitivity score (MDA-MB-468 [16]): 0

CN(N=O)C(=O)N[C@@H](C=O)[C@@H](O)[C@H](O)[C@H](O)CO [Streptozocin]
drug sensitivity score (CAL-85-1): 0
drug sensitivity score (Hs578T): 0
drug sensitivity score (MDA-MB-231): 0
drug sensitivity score (MDA-MB-453 [1]): 0
drug sensitivity score (CAL-51 [2]): 0
drug sensitivity score (HCC1143): 0
drug sensitivity score (BT-549 [3]): 0
drug sensitivity score (HDQ-P1 [4]): 0
drug sensitivity score (SK-BR-3): 0
drug sensitivity score (HCC1937): 3.78
drug sensitivity score (CAL-148): 0
drug sensitivity score (CAL-120 [5]): 0
drug sensitivity score (HCC1599 [6]): 0
drug sensitivity score (MFM-223 [7]): 0
drug sensitivity score (MDA-MB-468 [8]): 0
drug sensitivity score (MDA-MB-436): 0
drug sensitivity score (DU-4475): 0
drug sensitivity score (MDA-MB-453 [9]): 0
drug sensitivity score (CAL-51 [10]): 0
drug sensitivity score (MCF-10A): 0
drug sensitivity score (BT-549 [11]): 0
drug sensitivity score (HDQ-P1 [12]): 0
drug sensitivity score (CAL-120 [13]): 0
drug sensitivity score (HCC1599 [14]): 0
drug sensitivity score (MFM-223 [15]): 0
drug sensitivity score (MDA-MB-468 [16]): 3.14

C#Cc1cccc(Nc2ncnc3cc(OCCOC)c(OCCOC)cc23)c1 [Erlotinib]
drug sensitivity score (CAL-85-1): 8.53
drug sensitivity score (Hs578T): 0
drug sensitivity score (MDA-MB-231): 0
drug sensitivity score (MDA-MB-453 [1]): 2.55
drug sensitivity score (CAL-51 [2]): 0
drug sensitivity score (HCC1143): 0
drug sensitivity score (BT-549 [3]): 0
drug sensitivity score (HDQ-P1 [4]): 7.17
drug sensitivity score (SK-BR-3): 3.78
drug sensitivity score (HCC1937): 4.19
drug sensitivity score (CAL-148): 5.88
drug sensitivity score (CAL-120 [5]): 3.43
drug sensitivity score (HCC1599 [6]): 3.83
drug sensitivity score (MFM-223 [7]): 0
drug sensitivity score (MDA-MB-468 [8]): 5.57
drug sensitivity score (MDA-MB-436): 0
drug sensitivity score (DU-4475): 0
drug sensitivity score (MDA-MB-453 [9]): 0
drug sensitivity score (CAL-51 [10]): 2.1
drug sensitivity score (MCF-10A): 0
drug sensitivity score (BT-549 [11]): 0
drug sensitivity score (HDQ-P1 [12]): 0
drug sensitivity score (CAL-120 [13]): 0
drug sensitivity score (HCC1599 [14]): 0
drug sensitivity score (MFM-223 [15]): 0
drug sensitivity score (MDA-MB-468 [16]): 0

CC1(C)NC(=O)N(c2ccc([N+](=O)[O-])c(C(F)(F)F)c2)C1=O [Nilutamide]
drug sensitivity score (CAL-85-1): 0
drug sensitivity score (Hs578T): 0
drug sensitivity score (MDA-MB-231): 0
drug sensitivity score (MDA-MB-453 [1]): 0
drug sensitivity score (CAL-51 [2]): 0
drug sensitivity score (HCC1143): 0
drug sensitivity score (BT-549 [3]): 0
drug sensitivity score (HDQ-P1 [4]): 0
drug sensitivity score (SK-BR-3): 0
drug sensitivity score (HCC1937): 0
drug sensitivity score (CAL-148): 0
drug sensitivity score (CAL-120 [5]): 0
drug sensitivity score (HCC1599 [6]): 0
drug sensitivity score (MFM-223 [7]): 0
drug sensitivity score (MDA-MB-468 [8]): 0
drug sensitivity score (MDA-MB-436): 0
drug sensitivity score (DU-4475): 0
drug sensitivity score (MDA-MB-453 [9]): 0
drug sensitivity score (CAL-51 [10]): 0
drug sensitivity score (MCF-10A): 0
drug sensitivity score (BT-549 [11]): 0
drug sensitivity score (HDQ-P1 [12]): 0
drug sensitivity score (CAL-120 [13]): 0
drug sensitivity score (HCC1599 [14]): 0
drug sensitivity score (MFM-223 [15]): 0
drug sensitivity score (MDA-MB-468 [16]): 0

Cn1c(CCCC(=O)O)nc2cc(N(CCCl)CCCl)ccc21 [Bendamustine]
drug sensitivity score (CAL-85-1): 0
drug sensitivity score (Hs578T): 0
drug sensitivity score (MDA-MB-231): 0
drug sensitivity score (MDA-MB-453 [1]): 0
drug sensitivity score (CAL-51 [2]): 0
drug sensitivity score (HCC1143): 0
drug sensitivity score (BT-549 [3]): 0
drug sensitivity score (HDQ-P1 [4]): 0
drug sensitivity score (SK-BR-3): 0.0662
drug sensitivity score (HCC1937): 0
drug sensitivity score (CAL-148): 0
drug sensitivity score (CAL-120 [5]): 0
drug sensitivity score (HCC1599 [6]): 0
drug sensitivity score (MFM-223 [7]): 0
drug sensitivity score (MDA-MB-468 [8]): 0
drug sensitivity score (MDA-MB-436): 0
drug sensitivity score (DU-4475): 0
drug sensitivity score (MDA-MB-453 [9]): 0
drug sensitivity score (CAL-51 [10]): 0
drug sensitivity score (MCF-10A): 0
drug sensitivity score (BT-549 [11]): 0
drug sensitivity score (HDQ-P1 [12]): 0
drug sensitivity score (CAL-120 [13]): 0
drug sensitivity score (HCC1599 [14]): 0
drug sensitivity score (MFM-223 [15]): 0
drug sensitivity score (MDA-MB-468 [16]): 4.02
